From ChEMBL document CHEMBL1201862, “PubChem BioAssay data set” (2004)
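Interpolation was linear, between the two tested concentrations surrounding the appropriate level; five concentrations were tested over 48 hours in 96-well plates. GI50: concentration for 50% inhibition of growth.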 Active and inactive are the calls of the source. Cut-off read from the data, not from the text of the source: active = GI50 up to about 1.1 µM and inactive = higher.

Columns and labels:
Assay in all cases: growth of human tumour cells (NCI), 48 h
DU-145 = test system: DU-145
EKVX = test system: EKVX
HT-29 = test system: HT-29
K562 = test system: K562
LOX IMVI = test system: LOX IMVI
M14 = test system: M14
MDA-MB-435 = test system: MDA-MB-435
MDA-N = test system: MDA-N
MOLT-4 = test system: MOLT-4
NCI-H522 = test system: NCI-H522
OVCAR-8 = test system: OVCAR-8
SK-OV-3 = test system: SK-OV-3
SN12C = test system: SN12C
SNB-75 = test system: SNB-75
T47D = test system: T47D
TK-10 = test system: TK-10
UO-31 = test system: UO-31
KM12 = test system: KM12
SW-620 = test system: SW-620

Measured: GI50

O=C(/C=C/c1ccc(O)cc1)c1cc(O)cc(O)c1
inactive: DU-145 12.7 µM | EKVX 17.3 µM | HT-29 17.5 µM | K562 2.68 µM | LOX IMVI 4.32 µM | M14 15.7 µM | MDA-MB-435 14.2 µM | MDA-N 11.9 µM | MOLT-4 16.3 µM | NCI-H522 3.95 µM | OVCAR-8 13.4 µM | SK-OV-3 18.2 µM | SN12C 15.2 µM | SNB-75 17.6 µM | T47D 14.6 µM | TK-10 24.4 µM | UO-31 10 µM

CC(=O)[C@H]1[C@H](O)C[C@@]2(C)[C@@H]3CCc4cc(O)c(OC5OC(CO)C(O)C(O)C5O)cc4C3(C)C(=O)C[C@]12C (some centres undefined)
inactive: DU-145 > 100 µM | EKVX > 100 µM | HT-29 > 100 µM | K562 > 100 µM | KM12 > 100 µM | LOX IMVI > 100 µM | M14 > 100 µM | MDA-MB-435 > 100 µM | MDA-N > 100 µM | MOLT-4 > 100 µM | NCI-H522 > 100 µM | OVCAR-8 > 100 µM | SK-OV-3 > 100 µM | SN12C > 100 µM | SNB-75 > 100 µM | SW-620 > 100 µM | T47D > 100 µM | TK-10 > 100 µM | UO-31 > 100 µM

Cc1c(O)c(OC2OC(CO)C(O)C(O)C2O)cc2c1C=C[C@@H]1[C@@]2(C)C(=O)C[C@]2(C)[C@@H]([C@@](C)(O)C(O)/C=C/C(C)(C)O)[C@H](O)C[C@@]12C (some centres undefined)
inactive: DU-145 > 100 µM | EKVX > 100 µM | HT-29 > 100 µM | K562 > 100 µM | KM12 > 100 µM | LOX IMVI > 100 µM | M14 > 100 µM | MDA-MB-435 > 100 µM | MDA-N > 100 µM | MOLT-4 > 100 µM | NCI-H522 > 100 µM | OVCAR-8 > 100 µM | SK-OV-3 > 100 µM | SN12C > 100 µM | SNB-75 > 100 µM | SW-620 > 100 µM | T47D > 100 µM | TK-10 > 100 µM | UO-31 > 100 µM

C/C(=N/NC(N)=S)c1ccc[nH]1
inactive: DU-145 > 100 µM | EKVX > 100 µM | HT-29 > 100 µM | K562 37.9 µM | KM12 > 100 µM | LOX IMVI > 100 µM | M14 > 100 µM | MDA-MB-435 > 100 µM | MDA-N > 100 µM | MOLT-4 > 100 µM | NCI-H522 > 100 µM | OVCAR-8 > 100 µM | SK-OV-3 > 100 µM | SN12C > 100 µM | SNB-75 > 100 µM | SW-620 > 100 µM | T47D 84.3 µM | TK-10 > 100 µM | UO-31 > 100 µM

CC(=O)CC1CCC(=O)/C=C/C(=O)OC(CC(C)=O)CCC(=O)/C=C/C(=O)O1 (centres undefined)
inactive: DU-145 19.6 µM | EKVX 8.02 µM | HT-29 11.2 µM | K562 3.25 µM | KM12 20.8 µM | LOX IMVI 18.6 µM | M14 3.7 µM | MDA-MB-435 17 µM | MDA-N 9.53 µM | MOLT-4 2.19 µM | NCI-H522 1.14 µM | OVCAR-8 19.3 µM | SK-OV-3 20.7 µM | SN12C 8.55 µM | SNB-75 12.8 µM | SW-620 1.67 µM | T47D 2.09 µM | TK-10 7.35 µM | UO-31 12.6 µM

O=S(=O)(O)C(Cc1nc2ccccc2[nH]1)S(=O)(=O)OCCC1S(=O)(=O)OCCOS1(=O)=O (centres undefined)
inactive: DU-145 > 100 µM | EKVX > 100 µM | HT-29 > 100 µM | K562 > 100 µM | KM12 > 100 µM | LOX IMVI > 100 µM | M14 > 100 µM | MDA-MB-435 > 100 µM | MDA-N > 100 µM | MOLT-4 > 100 µM | NCI-H522 > 100 µM | OVCAR-8 > 100 µM | SK-OV-3 > 100 µM | SN12C > 100 µM | SNB-75 > 100 µM | SW-620 > 100 µM | T47D > 100 µM | TK-10 > 100 µM | UO-31 > 100 µM

C=C(C)[C@@H]1CC[C@@]2(C)[C@H]1[C@H]1CCC3[C@@]4(C)CC[C@H](O)C(C)(C)[C@@H]4CC[C@@]3(C)[C@]1(C)C[C@@H]2O (some centres undefined) [CALENDULADIOL]
inactive: DU-145 74.8 µM | EKVX 33.7 µM | HT-29 24.4 µM | K562 6.61 µM | KM12 39.4 µM | LOX IMVI 46.2 µM | M14 > 100 µM | MDA-MB-435 23.1 µM | MDA-N 43 µM | MOLT-4 11.2 µM | NCI-H522 17.6 µM | OVCAR-8 41.3 µM | SN12C 87.9 µM | SNB-75 27.3 µM | SW-620 41.9 µM | T47D > 100 µM | TK-10 > 100 µM
